Molecular target: T1, T. curvata BfaA (Thermomonospora curvata, UniProt D1ABB3)
T1 construct: gene Tcur_1573; native gene from genomic DNA (DSMZ), plasmid pNC964 (strain NS1164), crude E. coli cell-free extract
T1 sequence (D1ABB3 1-455): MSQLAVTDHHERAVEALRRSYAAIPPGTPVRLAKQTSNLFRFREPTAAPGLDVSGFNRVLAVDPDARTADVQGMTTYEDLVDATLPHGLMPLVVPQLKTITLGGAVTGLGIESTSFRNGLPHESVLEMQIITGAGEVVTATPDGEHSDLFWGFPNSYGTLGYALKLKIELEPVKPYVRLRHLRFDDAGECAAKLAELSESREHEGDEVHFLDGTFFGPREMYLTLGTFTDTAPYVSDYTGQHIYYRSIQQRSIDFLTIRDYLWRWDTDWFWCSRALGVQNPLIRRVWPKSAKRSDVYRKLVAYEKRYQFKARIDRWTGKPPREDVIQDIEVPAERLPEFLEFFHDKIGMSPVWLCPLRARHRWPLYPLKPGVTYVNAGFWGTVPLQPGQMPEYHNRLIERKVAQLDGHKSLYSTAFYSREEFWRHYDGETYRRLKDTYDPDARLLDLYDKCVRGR
Assay: crude extract assay, GC-FID of 10-methyl fatty acid
Format: biochemical
Conditions: 10 mM NADPH, 37 °C, 16 h; heat-inactivated BfaB lysate with 10-methylene acyl chains

## NC(=O)C1=CN([C@@H]2O[C@H](COP(=O)(O)OP(=O)(O)OC[C@H]3O[C@@H](n4cnc5c(N)ncnc54)[C@H](OP(=O)(O)O)[C@@H]3O)[C@@H](O)[C@H]2O)C=CC1 [NADPH]
  crude extract assay, GC-FID of 10-methyl fatty acid: We detected 10-methylstearic acid production in the presence of NADPH, but not NADH
